Results on 1 compound are retold here after patent US20240228572A1 (i2o Therapeutics, Inc., priority 2020, published 2024).

By EC50 is commonly meant the concentration giving half of the maximal effect. Broadly, the fraction unbound is free concentration divided by total concentration. As usually defined, the Cmax is the peak of the concentration-time curve. As a reminder, the Tmax is the time at which the peak concentration occurs. The bioavailability is the share of a dose that reaches the circulation, judged against a reference dose that is usually intravenous.

A short description of data set [1]: Metabolic stability in monkey kidney brush border membranes (kBBM). It is filed as in vitro ADME. The conditions noted are these: pH 7.4, read-out: kBBM t½. The method, then:
Brush border membranes from rat and human kidney tissue were prepared via centrifugation and stored at −70° C. Thawed stocks of rat or human kBBM were diluted to the appropriate concentration in 25 mM HEPES buffer (pH 7.4) containing 1% casein and aliquoted into a 96-well plate. The kBBM solutions were pre-warmed for 10 minutes at 37° C. Reactions were initiated by the addition of test peptide (1 mcM final concentration) also dissolved in 25 mM HEPES buffer (pH 7.4) containing 1% casein. The final concentration of kBBM in each incubation was 50 mcg protein/mL. Reactions were maintained at 37° C. in a shaking water bath. At 0, 0.25, 0.5, 1.0, 2.0, and 4.0 h post-initiation, 30 mcL of the reaction mixture was removed and placed into a 96-well plate containing 120 mcL of ice-cold methanol containing 2.5% formic acid. Quenched samples were centrifuged at 2178×g for 10 min and then a portion of the supernatants were transferred to a clean 96-well plate and diluted 1:1 with water.

For data set [2], the target named is T1, human GLP-1 receptor (GLP-1R) (Homo sapiens, UniProt P43220).
T1 construct: expressed in transfected cells
T1 sequence (P43220 24-463): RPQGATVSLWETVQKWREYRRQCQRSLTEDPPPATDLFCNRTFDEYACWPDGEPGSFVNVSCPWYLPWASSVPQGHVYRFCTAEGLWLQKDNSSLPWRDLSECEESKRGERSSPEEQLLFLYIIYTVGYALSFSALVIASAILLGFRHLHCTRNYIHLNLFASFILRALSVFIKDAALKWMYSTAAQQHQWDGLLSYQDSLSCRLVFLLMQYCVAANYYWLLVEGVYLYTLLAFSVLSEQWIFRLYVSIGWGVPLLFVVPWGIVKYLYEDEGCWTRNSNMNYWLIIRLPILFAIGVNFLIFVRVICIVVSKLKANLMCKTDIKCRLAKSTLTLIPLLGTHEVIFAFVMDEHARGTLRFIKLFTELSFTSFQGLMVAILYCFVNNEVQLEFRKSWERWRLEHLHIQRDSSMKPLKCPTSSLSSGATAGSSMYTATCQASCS
Put plainly: cAMP accumulation assay, CHO-K1 cells stably expressing human GLP-1R. It is filed as cell-based.

Another data set deals with serum albumin (Homo sapiens, UniProt P02768). In words: Fraction unbound (fu) in plasma by surface plasmon resonance, human. The conditions noted are these: SPR binding to serum albumin. It is filed as in vitro ADME. The method, then: Conventional methods of measuring plasma protein binding, such as equilibrium dialysis, ultrafiltration and ultracentrifugation, are not reliable with peptides because of their tendency to adsorb to the surface of plastic tubing, dialysis membranes and molecular weight cut-off filters. As a result, the extent to which acylated peptides bind to serum albumin was evaluated using surface plasmon resonance (SPR).
serum albumin, sequence (P02768 25-609): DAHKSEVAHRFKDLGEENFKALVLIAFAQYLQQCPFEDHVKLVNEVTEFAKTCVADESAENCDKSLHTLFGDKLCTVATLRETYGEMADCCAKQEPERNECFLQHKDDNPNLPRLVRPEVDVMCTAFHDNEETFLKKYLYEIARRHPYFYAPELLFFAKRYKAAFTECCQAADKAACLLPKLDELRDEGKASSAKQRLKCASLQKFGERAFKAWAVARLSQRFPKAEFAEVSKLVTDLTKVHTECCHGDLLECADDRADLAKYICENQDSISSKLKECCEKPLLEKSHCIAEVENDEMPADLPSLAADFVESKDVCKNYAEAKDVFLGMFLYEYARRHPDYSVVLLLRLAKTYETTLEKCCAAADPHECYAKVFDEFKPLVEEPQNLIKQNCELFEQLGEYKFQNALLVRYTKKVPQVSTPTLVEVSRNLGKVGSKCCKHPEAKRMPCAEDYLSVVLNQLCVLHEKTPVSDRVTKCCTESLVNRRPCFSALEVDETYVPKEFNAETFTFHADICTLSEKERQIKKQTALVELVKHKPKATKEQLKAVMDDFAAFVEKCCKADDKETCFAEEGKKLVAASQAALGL
Background: Surface plasmon resonance follows binding to a sensor surface in real time, without labels.

The nature of data set [3]: Subcutaneous bolus injection pharmacokinetics / bioavailability in rats. It is filed as in vivo. The conditions noted are these: rat, plasma; SC bolus 0.11 mg/kg, male Sprague-Dawley rats. The method, then: Peptides were dissolved in sterile saline and administered to non-fasted male Sprague-Dawley rats (n=3 per group) at a dose of 0.1 mg/kg via a single bolus injection into the subcutaneous space between the scapulae. Blood samples (approximately 250 μL) were collected for pharmacokinetic analysis via a jugular vein cannula at 0.083, 0.25, 0.5, 1, 2, 4, 8, 24, 48, 72, 96, and 120 hr post-dose into microtainer tubes containing K2EDTA as anticoagulant and 25 μL of a protease inhibitor cocktail. Plasma was prepared by centrifugation and stored at −80° C. until analysis.
A 70 μL aliquot of each plasma sample was placed into to a 96-well plate. To each well was added 210 μL of 0.1% TFA in 2:1 ethanol:acetonitrile containing an appropriate internal standard. Plates were vortex mixed for 10 min at 1300 rpm, and then centrifuged for 10 min at 500× g. Supernatants (210 μL) were placed into a clean 96-well plate and evaporated under a nitrogen stream at 45° C. Residues were reconstituted in 80 μL of 20% acetonitrile (aq) containing 0.1% formic acid.
All calibration standards were prepared in control rat plasma containing K2EDTA and protease inhibitor cocktail.
Samples and standards were analyzed by electrospray ionization (ESI) UPLC-MS/MS using a system consisting of a CTC HTS PAL auto-injector (Leap, Carrboro, NC), an Agilent Infinity 1290 system with column oven (Palo Alto, CA), a Valco switching valve (Houston, TX), and a Sciex TripleTOF® 5600 mass spectrometer (Framingham, MA). Samples were injected onto a 2.1×50 mm reverse phase C18 analytical column, typically a Waters CORTECS UPLC C18+, 1.6 μm (Waters Corporation, Milford, MA) or similar. […] Initial conditions consisted of 95% A and 5% B. The organic component was increased to 95% B over a period of 3-4 minutes, depending on the peptide. Typical flow rates were 550 μL/min. The column temperature was held constant at 45° C. Peptides were quantified by monitoring one or more product ions produced from a multiply charged parent ion.

*1 amine or outer side, *2 acyl side, *3 side chain or, on linkers, in order; H or OH if unused. Where a SMILES comes first, the peptide text is derived from it. Side-chain parts run from the residue outwards. [ ]: non-standard residue; d: D form. The star is where a group is joined. C20 diacid = O=C(O)CCCCCCCCCCCCCCCCCCC(=O)*; γGlu = O=C(O)[C@H](CCC(=O)[*:2])N[*:1]; AEEA = NCCOCCOCC(=O)O; Aib = CC(C)(N)C(=O)O

On to `CC(C)C[C@H](NC(=O)[C@H](Cc1ccc(O)cc1)NC(=O)[C@H](CCCCN)NC(=O)[C@H](CO)NC(=O)[C@H](Cc1ccc(O)cc1)NC(=O)[C@H](CC(=O)O)NC(=O)[C@H](CO)NC(=O)[C@@H](NC(=O)[C@H](Cc1ccccc1)NC(=O)[C@@H](NC(=O)CNC(=O)[C@H](Cc1c[nH]cn1)NC(=O)[C@H](CO)NC(=O)[C@@H](N)Cc1ccc(O)cc1)[C@@H](C)O)[C@@H](C)O)C(=O)N[C@@H](CC(=O)O)C(=O)NC(C)(C)C(=O)N[C@@H](CCCCN)C(=O)N[C@@H](Cc1ccc(O)cc1)C(=O)N[C@@H](C)C(=O)N[C@@H](CCC(N)=O)C(=O)N[C@@H](CCCCNC(=O)CC[C@H](NC(=O)CC[C@H](NC(=O)COCCOCCNC(=O)CCCCCCCCCCCCCCCCCCC(=O)O)C(=O)O)C(=O)O)C(=O)N[C@@H](Cc1ccccc1)C(=O)N[C@H](C(=O)NC(C)(C)C(=O)N[C@@H](Cc1c[nH]c2ccccc12)C(=O)N[C@@H](CC(C)C)C(=O)N[C@@H](CCC(=O)O)C(=O)N[C@@H](CC(=O)O)C(=O)N[C@@H](CCC(=O)O)C(=O)N1CCC[C@H]1C(=O)N[C@@H](CO)C(=O)N[C@@H](CO)C(=O)NCC(=O)N[C@@H](C)C(=O)N1CCC[C@H]1C(=O)N1CCC[C@H]1C(=O)N1CCC[C@H]1C(=O)N[C@@H](CO)C(=O)O)C(C)C` [Compound A6] (H-YSHGTFTSDYSKYLD[Aib]KYAQK([γGlu-γGlu-AEEA-C20 diacid])FV[Aib]WLEDEPSSGAPPPS-OH; N-terminus assumed), for which the half-life at 1 mcM in data set [1] is over 720 min. The compound further registered a 50% effective concentration (EC50) in data set [2] of over 100 nM. In data set [2] (human GLP-1 receptor, Table 11), the “Activity (as EC50 values) hGLP1R” value was under 7. At serum albumin, this compound gave a fraction unbound of 0.0072. In data set [3], the highest concentration (Cmax) came out at 462 ng/mL, the Tmax lay in the range of 8 to 24 h, the bioavailability came out at 94.9% and the half-life was 948 min.
